US12642270B2, “Substituted thiophene carboxamides, thiophene carboxylic acids and derivatives thereof” (Bayer Aktiengesellschaft, priority 2019, dated 2026)

Test: Log P by HPLC on reversed phase columns (EEC directive 79/831 Annex V.A8)
Format: physicochemical
Conditions: method [a]: LC-UV, acidic range, 0.1% formic acid in water and acetonitrile
Procedure, shortened: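 Reversed-phase HPLC per EEC 79/831 Annex V.A8, LC-UV with 10→95% acetonitrile linear gradient; eluent [a] 0.1% formic acid (acidic), [b] 0.001 M ammonium acetate (neutral), [c] 0.1% phosphoric acid (acidic). Calibrated with C3–C16 straight-chain alkan-2-ones, linear interpolation of retention times; multiple values joined by "+".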

Row | LogP | SMILES
1 | 2.84^[a] | O=C(NC1CCSC1=O)c1sc(Br)c(Br)c1F (stereo not shown) [I.0006]
2 | 2.89^[a] | O=C(N[C@H]1CCSC1=O)c1sc(Br)c(Br)c1F [I.0017]
3 | 2.01^[a] | O=C(NC1CCCNC1=O)c1sc(Br)c(Br)c1F (stereo not shown) [I.0061]
4 | 4.27^[a] | CC[C@H](C)[C@H](NC(=O)c1sc(Cl)c(Br)c1C)C(=O)OC [I.0123]
5 | 4.37^[a] | CC[C@H](C)[C@H](NC(=O)c1sc(Br)c(Br)c1F)C(=O)OC [I.0141]
6 | 1.71^[a] | O=C(NC1CCNC1=O)c1cc(Cl)c(Br)s1 (stereo not shown) [I.0218]
7 | 1.77^[a] | O=C1CC(NC(=O)c2cc(Cl)c(Br)s2)CCN1 (stereo not shown) [I.0219]
8 | 2.09^[a] | O=C(NC1CCOC1=O)c1cc(Cl)c(Br)s1 (stereo not shown) [I.0220]
9 | 1.71^[a] | O=C1CC(NC(=O)c2cc(Cl)c(Br)s2)CN1 (stereo not shown) [I.0221]
10 | 1.73^[a] | O=C(NC1CCNC1=O)c1cc(Br)c(Cl)s1 (stereo not shown) [I.0222]
11 | 1.80^[a] | O=C1CC(NC(=O)c2cc(Br)c(Cl)s2)CCN1 (stereo not shown) [I.0223]
12 | 2.14^[a] | O=C(NC1CCOC1=O)c1cc(Br)c(Cl)s1 (stereo not shown) [I.0224]

Same assay, conditions: method [a]: LC-UV, acidic range, 0.1% formic acid in water and acetonitrile; listed as 1.0023

Row | LogP | SMILES
13 | 2.99^[a] | Cc1c(C(=O)NC2CCSC2=O)sc(Cl)c1Br (stereo not shown) [I.0023]

Same assay, conditions: method [a]: LC-UV, acidic range, 0.1% formic acid in water and acetonitrile; listed as 1.0060

Row | LogP | SMILES
14 | 2.25^[a] | O=C(NC1CCOC1=O)c1sc(Br)c(Br)c1F (stereo not shown) [I.0060]

Same assay, conditions: method marker [a] given with each value; Table 1.1, compounds of formula (I)

Row | SMILES | LogP
15 | CN(C)C(=S)C1(NC(=O)c2sc(Br)c(Br)c2F)CC1 [1.0977] | 2.93^[a]
16 | COC(=O)C1(NC(=O)c2sc(Cl)c(C)c2Cl)CC1 [1.0978] | 2.86^[a]
17 | COC(=O)C1(NC(=O)c2sc(Br)c(Br)c2F)CCC1 [1.0979] | 3.32^[a]
18 | Cc1c(C(=O)NC2(C(=O)OC3CCCC3)CC2)sc(C#N)c1Br [1.0980] | 3.36^[a]
19 | Cc1c(C(=O)NCC(=O)OC(C)(C)C)sc(C#N)c1Br [1.0981] | 3.14^[a]
20 | Cc1c(C(=O)NCC(=O)OCC2CC2)sc(C#N)c1Br [1.0982] | 2.86^[a]
21 | CCCOC(=O)CNC(=O)c1sc(Br)c(Br)c1Cl [1.0983] | 3.76^[a]
22 | N#CCCOC(=O)CNC(=O)c1sc(Br)c(Br)c1Cl [1.0984] | 2.76^[a]
23 | O=C(CNC(=O)c1sc(Br)c(Br)c1Cl)OCC1CC1 [1.0985] | 3.79^[a]
24 | CC(C)(C)OC(=O)CNC(=O)c1sc(Br)c(Br)c1Cl [1.0986] | 4.20^[a]
25 | CCCCOC(=O)CNC(=O)c1sc(Br)c(Br)c1Cl [1.0987] | 4.22^[a]
26 | O=C(CNC(=O)c1sc(Br)c(Br)c1Cl)OC1CCCC1 [1.0988] | 4.28^[a]
27 | O=C(CNC(=O)c1sc(Br)c(Br)c1Cl)Oc1ccccc1 [1.0989] | 3.93^[a]
28 | O=C(CNC(=O)c1sc(Br)c(Br)c1Cl)OCc1ccccc1 [1.0990] | 4.15^[a]
29 | CCOC(=O)C(NC(=O)c1sc(Br)c(Br)c1Cl)C1CC1 (stereo not shown) [1.0991] | 4.34^[a]
30 | C#CCOC(=O)CNC(=O)c1sc(C#N)c(Br)c1C [1.0992] | 2.43^[a]
31 | Cc1c(C(=O)NCC(=O)OC2CC2)sc(C#N)c1Br [1.0993] | 2.54^[a]
32 | C=CCOC(=O)CNC(=O)c1sc(C#N)c(Br)c1C [1.0994] | 2.65^[a]
33 | CCCOC(=O)CNC(=O)c1sc(C#N)c(Br)c1C [1.0995] | 2.81^[a]
34 | Cc1c(C(=O)NCC(=O)OCCC#N)sc(C#N)c1Br [1.0996] | 2.09^[a]
35 | O=C(CNC(=O)c1sc(Br)c(Br)c1Cl)SCc1ccccc1 [1.0997] | 4.62^[a]
36 | CCSC(=O)C(NC(=O)c1sc(Br)c(Br)c1Cl)C(C)C (stereo not shown) [1.0998] | 5.45^[a]

Row | SMILES | LogP
37 | CCOC(=O)CNC(=S)c1sc(Br)c(Br)c1F [1.0999] | 4.23^[a]
38 | CC(C)COC(=O)CNC(=O)c1sc(Br)c(Br)c1F [1.1000] | 3.88^[a]
39 | CNC(=S)CNC(=O)c1sc(Br)c(Br)c1F [1.1001] | 2.56^[a]
40 | CN(C)C(=S)CNC(=O)c1sc(Br)c(Br)c1F [1.1002] | 3.19^[a]
41 | COC(=O)C1(NC(=O)c2sc(Cl)c(Br)c2Cl)CCC1 [1.1003] | 3.74^[a]
42 | COC(=O)C1(NC(=O)c2sc(Cl)c(Cl)c2Br)CCC1 [1.1004] | 3.85^[a]
43 | O=C(CNC(=O)c1sc(Br)c(Br)c1F)OC1CSC1 [1.1007] | 3.37^[a]
44 | N#CCOC(=O)CNC(=O)c1sc(Br)c(Br)c1F [1.1008] | 2.67^[a]
45 | CC(C)C(C#N)NC(=O)c1sc(Br)c(Br)c1F (stereo not shown) [1.1010] | 3.54^[a]
46 | CC(C)C(C#N)NC(=O)c1sc(Cl)c(Cl)c1Br (stereo not shown) [1.1013] | 3.84^[a]
47 | N#CC1(NC(=O)c2sc(Cl)c(Cl)c2Br)CCC1 [1.1014] | 3.37^[a]
48 | Cc1c(C(=O)NC2(C#N)CCC2)sc(C#N)c1Br [1.1015] | 2.64^[a]
49 | Cc1c(C(=O)NC(C#N)C(C)C)sc(C#N)c1Br (stereo not shown) [1.1016] | 3.03^[a]
50 | O=C(NC1(C(=O)O)CCC1)c1sc(Cl)c(Cl)c1Br [1.1017] | 2.95^[a]
51 | O=C(CNC(=O)c1sc(Br)c(Br)c1F)OC1CCOCC1 [1.1018] | 2.80^[a]
52 | COC(=O)C(C)(C)NC(=O)c1sc(Cl)c(Br)c1Cl [1.1019] | 3.73^[a]
53 | COC(=O)C(C)(C)NC(=O)c1sc(Br)c(Br)c1Cl [1.1020] | 3.75^[a]
54 | COC(=O)C(C)(C)NC(=O)c1sc(Cl)c(Cl)c1Br [1.1021] | 3.71^[a]
55 | CC(C)(NC(=O)c1sc(Cl)c(Br)c1Cl)C(=O)O [1.1022] | 2.80^[a]
56 | CC(C)(NC(=O)c1sc(Br)c(Br)c1Cl)C(=O)O [1.1023] | 2.81^[a]
57 | CC(C)(NC(=O)c1sc(Cl)c(Cl)c1Br)C(=O)O [1.1024] | 2.80^[a]
58 | COC(=O)C(CCSC(C)=O)NC(=O)c1sc(Br)c(Br)c1Cl (stereo not shown) [1.1025] | 3.98^[a]

Row | SMILES | LogP
59 | O=C(CNC(=O)c1sc(Br)c(Br)c1F)OCC(F)(F)F [1.1026] | 3.40^[a]
60 | C[Si](C)(C)COC(=O)CNC(=O)c1sc(Br)c(Br)c1F [1.1027] | 4.40^[a]
61 | COC(=O)C(CCSC(C)=O)NC(=O)c1sc(Cl)c(Cl)c1Br (stereo not shown) [1.1028] | 3.98^[a]
62 | O=C(O)C(NC(=S)c1sc(Br)c(Br)c1F)C1CC1 (stereo not shown) [1.1029] | 3.45^[a]
63 | O=C(O)CNC(=S)c1sc(Cl)c(Cl)c1I [1.1030] | 3.13^[a]
64 | CCOC(=O)C1(NC(=O)c2sc(C#N)c(Cl)c2Cl)CSC1 [1.1041] | 3.23^[a]
65 | COC(=O)[C@H](CC(=O)O)NC(=O)c1sc(Br)c(Br)c1F [1.1043] | 2.28^[a]
66 | COC(=O)[C@H](CC(=O)O)NC(=O)c1sc(Cl)c(Cl)c1Br [1.1044] | 2.58^[a]
67 | CNC(=O)CNC(=O)c1sc(Br)c(Br)c1Cl [1.1045] | 2.07^[a]
68 | CCOC(=O)C1(NC(=O)c2sc(Br)c(Cl)c2Cl)CSC1 [1.1046] | 3.94^[a]
69 | COC(=O)[C@H](CC(N)=O)NC(=O)c1sc(Cl)c(Cl)c1Br [1.1047] | 2.23^[a]
70 | COC(=O)[C@H](CCC(N)=O)NC(=O)c1sc(Br)c(Br)c1F [1.1048] | 2.05^[a]
71 | COC(=O)[C@H](CCC(N)=O)NC(=O)c1sc(Cl)c(Cl)c1Br [1.1049] | 2.25^[a]
72 | COC(=O)[C@H](CCC(=O)O)NC(=O)c1sc(Cl)c(Cl)c1Br [1.1050] | 2.68^[a]
73 | CCOC(=O)C1(NC(=O)c2sc(Br)c(Br)c2C#N)CSC1 [1.1051] | 3.15^[a]
74 | CCOC(=O)C1(NC(=O)c2sc(Br)c(Br)c2C(F)F)CSC1 [1.1052] | 3.58^[a]
75 | COC(=O)C(C)(C)NC(=O)c1sc(C#N)c(Br)c1Br [1.1053] | 3.34^[a]
76 | CCOC(=O)C1(NC(=O)c2sc(Cl)c(Cl)c2C#N)CSC1 [1.1054] | 3.05^[a]
77 | N#CC1(NC(=O)c2sc(Br)c(Br)c2Cl)CCCSC1 (stereo not shown) [1.1055] | 3.85^[a]
78 | N#CC1(NC(=O)c2sc(Br)c(Br)c2F)CCCSC1 (stereo not shown) [1.1056] | 3.41^[a]

More lines, now with the values ahead:

Row | LogP | SMILES
79 | 3.66^[a] | CCOC(=O)C1(NC(=O)c2sc(Cl)c(Br)c2C)CSC1 [1.1057]
80 | 2.12^[a] | N#CCNC(=O)c1sc(C#N)c(Br)c1Br [1.1058]
81 | 3.55^[a] | CCOC(=O)C1(NC(=O)c2sc(Cl)c(Cl)c2C(F)F)CSC1 [1.1059]
82 | 3.91^[a] | CCOC(=O)C1(NC(=O)c2sc(Cl)c(Br)c2Br)CSC1 [1.1060]
83 | 3.21^[a] | COC(=O)C(C)(C)NC(=O)c1sc(Br)c(Br)c1C(F)F [1.1061]
84 | 4.24^[a] | CCOC(=O)C(C)(C)NC(=O)c1sc(Cl)c(Cl)c1Br [1.1062]
85 | 3.62^[a] | CCOC(=O)C1(NC(=O)c2sc(Br)c(Cl)c2C)CSC1 [1.1063]
86 | 2.63^[a] | CCOC(=O)C(CO)NC(=O)c1sc(Br)c(Br)c1C(F)F (stereo not shown) [1.1064]
87 | 3.55^[a] | COC(=O)C(CCSC)NC(=O)c1sc(Br)c(Br)c1C(F)F (stereo not shown) [1.1065]
88 | 3.05^[a] | COC(=O)C(NC(=O)c1sc(Br)c(Br)c1C(F)F)C(=O)OC [1.1067]
89 | 2.67^[a] | CCOC(=O)C(CO)NC(=O)c1sc(Cl)c(Cl)c1C(F)F (stereo not shown) [1.1068]
90 | 3.52^[a] | COC(=O)C(CCSC)NC(=O)c1sc(Cl)c(Cl)c1C(F)F (stereo not shown) [1.1069]
91 | 3.16^[a] | COC(=O)C(C)(C)NC(=O)c1sc(Cl)c(Cl)c1C(F)F [1.1070]

Same assay, conditions: reversed phase HPLC columns, value in preparation example, method not marked

Row | chromatographic logP | SMILES
92 | 2.4 | CCOC(=O)CNC(=O)c1sc(C#N)c(Br)c1C [I.0024, ethyl N-[(4-bromo-5-cyano-3-methyl-2-thienyl)carbonyl]glycinate]
93 | 3.96 | CCSC(=O)C1(NC(=O)c2sc(Br)c(Br)c2I)CC1 [I.0139, S-ethyl 1-{[(4,5-dibromo-3-iodo-2-thienyl)carbonyl]amino}cyclopropanecarbothioate]
94 | 2.57 | O=C(NC1(C(=O)O)CCC1)c1sc(Br)c(Br)c1F [I.0172, 1-{[(4,5-dibromo-3-fluoro-2-thienyl)carbonyl]amino}cyclobutanecarboxylic acid]
